A word on the EC50: it is the concentration at which the effect is half-maximal. A higher EC50 goes with lower potency in that assay.

The species entered for the experiment is Rattus norvegicus. The experiment can be described thus: Dose response for [Ca2+] release from rat brain microsomes was determined. It is filed as functional.
For the compound `O=P(O)(O)O[C@@H]1[C@H](O)[C@H](O)[C@@H](OP(=O)(O)O)[C@H](OP(=O)(O)O)[C@H]1O` [INS(1,4,5)P3], the response was half-maximal at 0.09 µM (EC50).

`Nc1c2ncn3c2nc[n+]1[C@@H]1O[C@H](COP(=O)([O-])OP(=O)(O)OC[C@H]2O[C@@H]3[C@H](O)[C@@H]2O)[C@@H](O)[C@H]1O` registered an EC50 of 22 µM.

Regarding `O=P1([O-])OC[C@H]2OC([C@H](O)[C@@H]2O)[n+]2ccn3cnc4c(ncn4C4O[C@H](COP(=O)(O)O1)[C@@H](O)[C@H]4O)c32`, the EC50 amounted to 8 µM.
